Measurements as given in article PMC6858350, “A common mechanism allows selective targeting of GluN2B subunit-containing N-methyl-D-aspartate receptors” (Communications Biology, 2019).

Tests used:
[1] = test system: more than 100 relevant receptors, transporters and enzymes including adrenergic (α1), dopaminergic (D1, D2), opioid (κ, μ, δ) and serotonergic receptors …; parameters: method as in earlier work; settings: concentration of 1 - 3 µM; ref 2 (Tewes et al., Bioorg. Med. Chem. 2010); cited from earlier work
[2] = target: GluN1-1a/GluN2B NMDAR (wildtype) (Rattus norvegicus, UniProt P35439+Q00960); assay type: cell-based; settings: TEVC, wildtype
GluN1-1a/GluN2B NMDAR (wildtype), sequence (Q00960 27-1482, other chains not shown): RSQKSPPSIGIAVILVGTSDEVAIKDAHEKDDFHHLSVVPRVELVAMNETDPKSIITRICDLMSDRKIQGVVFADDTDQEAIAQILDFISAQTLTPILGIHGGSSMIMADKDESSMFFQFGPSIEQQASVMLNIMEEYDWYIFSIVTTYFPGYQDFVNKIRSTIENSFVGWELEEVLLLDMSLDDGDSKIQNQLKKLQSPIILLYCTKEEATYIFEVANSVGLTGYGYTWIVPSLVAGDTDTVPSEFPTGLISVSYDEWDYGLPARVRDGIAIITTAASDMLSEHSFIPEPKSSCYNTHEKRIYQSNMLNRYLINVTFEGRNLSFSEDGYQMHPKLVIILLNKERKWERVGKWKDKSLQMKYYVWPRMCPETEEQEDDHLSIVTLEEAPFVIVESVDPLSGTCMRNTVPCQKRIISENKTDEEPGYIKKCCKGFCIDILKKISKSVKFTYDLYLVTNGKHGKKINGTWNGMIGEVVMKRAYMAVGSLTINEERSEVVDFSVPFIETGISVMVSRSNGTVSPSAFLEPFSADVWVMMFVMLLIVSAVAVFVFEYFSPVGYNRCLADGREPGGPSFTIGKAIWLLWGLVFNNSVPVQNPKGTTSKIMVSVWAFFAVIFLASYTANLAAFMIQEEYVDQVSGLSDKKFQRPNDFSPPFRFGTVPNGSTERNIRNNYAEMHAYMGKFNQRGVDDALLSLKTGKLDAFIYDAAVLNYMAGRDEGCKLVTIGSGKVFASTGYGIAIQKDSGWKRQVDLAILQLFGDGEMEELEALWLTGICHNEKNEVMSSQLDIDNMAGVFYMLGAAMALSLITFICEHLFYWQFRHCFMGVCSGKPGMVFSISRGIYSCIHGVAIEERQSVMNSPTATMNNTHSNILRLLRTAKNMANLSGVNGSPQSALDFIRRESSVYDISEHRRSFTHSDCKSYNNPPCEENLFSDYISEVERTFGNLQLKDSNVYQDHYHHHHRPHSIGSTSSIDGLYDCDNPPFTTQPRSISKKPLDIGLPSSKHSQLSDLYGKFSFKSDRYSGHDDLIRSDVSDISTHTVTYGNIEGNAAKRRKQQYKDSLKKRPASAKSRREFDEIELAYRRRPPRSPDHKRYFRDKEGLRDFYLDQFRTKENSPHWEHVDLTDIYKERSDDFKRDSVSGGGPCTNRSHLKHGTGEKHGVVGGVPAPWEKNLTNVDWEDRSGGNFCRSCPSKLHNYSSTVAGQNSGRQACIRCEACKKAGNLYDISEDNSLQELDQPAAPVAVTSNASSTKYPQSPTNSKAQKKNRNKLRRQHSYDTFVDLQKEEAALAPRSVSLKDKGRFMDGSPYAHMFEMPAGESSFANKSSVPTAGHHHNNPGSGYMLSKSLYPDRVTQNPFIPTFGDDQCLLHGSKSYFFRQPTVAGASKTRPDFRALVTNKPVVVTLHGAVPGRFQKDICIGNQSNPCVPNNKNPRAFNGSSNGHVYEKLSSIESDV

Oc1ccc2c(c1)CCN(CCCCc1ccccc1)CC2O (racemic) [compound rac-1]
competition with the employed radioligands [1]: did not compete | IC50 ([2]; holding potential −70 mV, 10 µM glycine and 10 µM (S)-glutamate, read-out: IC50 ± SE): 94 ± 8 nM | p (slope of the dose-response curve) ([2]; −70 mV): 1.25 | A2 ± SE (maximum inhibition from dose-response curve) ([2]; −70 mV, flexible A2): 93 ± 2%
